Measured values: patent US12486269B2 (Aconcagua Bio, Inc., priority 2024, dated 2025)

How the values were obtained:
[1] = molecular target: T1, human calcitonin receptor (CTR) (Homo sapiens, UniProt P30988); experiment: Calcitonin Receptor (CTR) cAMP Assay; assay type: cell-based; settings: COS7-human CTR Clone #2 stable cell line, cAMP dynamic 2 kit, 30 min; read-out: Calcitonin Receptor cAMP Stimulation Activity: EC50
T1 construct: expressed in transfected cells; host or cells: COS-7 (COS7-human CTR Clone #2)
T1 sequence (P30988 25-474): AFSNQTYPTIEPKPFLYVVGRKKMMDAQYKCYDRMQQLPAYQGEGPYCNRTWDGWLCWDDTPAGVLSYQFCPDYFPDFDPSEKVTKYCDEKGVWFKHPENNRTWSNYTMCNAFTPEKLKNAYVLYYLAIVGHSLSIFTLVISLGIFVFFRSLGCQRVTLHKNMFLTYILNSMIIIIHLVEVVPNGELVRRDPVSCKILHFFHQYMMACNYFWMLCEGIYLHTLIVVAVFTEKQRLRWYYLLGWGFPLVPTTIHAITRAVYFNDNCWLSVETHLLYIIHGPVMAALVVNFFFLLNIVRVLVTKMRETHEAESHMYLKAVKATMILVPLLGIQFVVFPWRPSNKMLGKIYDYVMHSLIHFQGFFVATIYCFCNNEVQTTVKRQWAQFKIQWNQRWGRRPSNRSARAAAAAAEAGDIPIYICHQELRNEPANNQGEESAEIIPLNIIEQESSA
Method in brief: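 cAMP accumulation was measured by HTRF cAMP dynamic 2 read at 665/615 nm, 1 h at room temperature, with results scaled between vehicle and positive control. Before detection, COS7-human CTR stable cells were stimulated 30 min at 37 °C with compound (4-fold dilutions) in IBMX-containing HBSS/HEPES/casein buffer.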

[2] = molecular target: T2, COS-7/AMY3 (human calcitonin receptor (CTR) and RAMP3) (Homo sapiens, UniProt O60896+P30988); experiment: Amylin Receptor cAMP Assay II; assay type: cell-based; settings: values marked **: Amylin Receptor cAMP Assay II; COS-7/AMY3 cells, cAMP dynamic 2 kit, 30 min; read-out: Amylin Receptor cAMP Stimulation Activity: EC50
T2 construct: expressed in transfected cells; host or cells: COS-7
T2 sequence (O60896 24-148, one chain of several): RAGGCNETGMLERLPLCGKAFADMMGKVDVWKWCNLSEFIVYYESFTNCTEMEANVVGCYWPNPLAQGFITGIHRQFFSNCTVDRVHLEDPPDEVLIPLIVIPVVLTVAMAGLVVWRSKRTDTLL
Method in brief: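 Agonist-induced cAMP was quantified by HTRF ratio at 665/615 nm and expressed as % of the window from vehicle to MAX control. Stimulation lasted 30 min at 37 °C in HBSS/20 mM HEPES/0.5 mM IBMX/0.1% casein, using stable human CTR+RAMP3 (AMY3) COS-7 cells at 2000 per well.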

O=C1c2c(nc(CCc3ccc(F)cc3)c(-c3n[nH]c(=O)o3)c2-c2cc3ccnc(N[C@@H]4CCc5cc(F)ccc54)c3s2)[C@@H]2CCCN12 [Compound 184, 5-((S)-4-(7-(((R)-5-fluoro-2,3-dihydro-1H-inden-1-yl)amino)thieno[2,3-c]pyridin-2-yl)-2-(4-fluorophenethyl)-5-oxo-7,8,9,9a-tetrahydro-5H-pyrido[2,3-a]pyrrolizin-3-yl)-1,3,4-oxadiazol-2(3H)-one]
EC50 [1]: 0.247 nM
EC50 [2]: 3.59 nM

COc1cccc2c1CC[C@H]2Nc1nccc2cc(-c3c4c(nc(C(C)C)c3-c3n[nH]c(=O)o3)[C@@H]3CCCN3C4=O)sc12 [Compound 185, 5-((S)-2-isopropyl-4-(7-(((R)-4-methoxy-2,3-dihydro-1H-inden-1-yl)amino)thieno[2,3-c]pyridin-2-yl)-5-oxo-7,8,9,9a-tetrahydro-5H-pyrido[2,3-a]pyrrolizin-3-yl)-1,3,4-oxadiazol-2(3H)-one]
EC50 [1]: 15.2 nM
EC50 [2]: 231 nM

CC1(C)Oc2cc(-c3c4c(nc(CCc5ccc(F)cc5)c3-c3n[nH]c(=O)o3)[C@@H]3CCCN3C4=O)ccc2N(Cc2ccc(F)cn2)C1=O [Compound 186, (S)-7-(2-(4-fluorophenethyl)-5-oxo-3-(5-oxo-4,5-dihydro-1,3,4-oxadiazol-2-yl)-7,8,9,9a-tetrahydro-5H-pyrido[2,3-a]pyrrolizin-4-yl)-4-((5-fluoropyridin-2-yl)methyl)-2,2-dimethyl-2H-benzo[b][1,4]oxazin-3(4H)-one]
EC50 [1]: 0.682 nM
EC50 [2]: 37.2 nM

COc1c(F)ccc2c1CC[C@H]2Nc1nc(C)cc2cc(-c3c4c(nc(CCc5ccc(F)cc5)c3-c3n[nH]c(=O)o3)[C@@H]3CCCN3C4=O)sc12 [Compound 187, 5-((S)-4-(7-(((R)-5-fluoro-4-methoxy-2,3-dihydro-1H-inden-1-yl)amino)-5-methylthieno[2,3-c]pyridin-2-yl)-2-(4-fluorophenethyl)-5-oxo-7,8,9,9a-tetrahydro-5H-pyrido[2,3-a]pyrrolizin-3-yl)-1,3,4-oxadiazol-2(3H)-one]
EC50 [1]: 0.0484 nM
EC50 [2]: 0.608 nM

COc1cccc2c1CC[C@H]2Nc1nc(C(F)F)cc2cc(-c3c4c(nc(CCc5ccc(F)cc5)c3-c3n[nH]c(=O)o3)[C@@H]3CCCN3C4=O)sc12 [Compound 188, 5-((S)-4-(5-(difluoromethyl)-7-(((R)-4-methoxy-2,3-dihydro-1H-inden-1-yl)amino)thieno[2,3-c]pyridin-2-yl)-2-(4-fluorophenethyl)-5-oxo-7,8,9,9a-tetrahydro-5H-pyrido[2,3-a]pyrrolizin-3-yl)-1,3,4-oxadiazol-2(3H)-one]
EC50 [1]: 0.223 nM
EC50 [2]: 6.57 nM

COc1c(F)ccc2c1CC[C@H]2Nc1nccc2cc(-c3c4c(nc(CCc5ccc(F)cc5)c3-c3n[nH]c(=O)o3)C35CC(CN3C4=O)C5)sc12 [Compound 189, (R)-5-(4-(7-((5-fluoro-4-methoxy-2,3-dihydro-1H-inden-1-yl)amino)thieno[2,3-c]pyridin-2-yl)-2-(4-fluorophenethyl)-5-oxo-8,9-dihydro-5H,7H-8,9a-methanopyrido[2,3-a]pyrrolizin-3-yl)-1,3,4-oxadiazol-2(3H)-one]
EC50 [1]: 0.0262 nM
EC50 [2]: 0.213 nM

O=C1c2c(nc(CCc3ccc(F)cc3)c(-c3n[nH]c(=O)o3)c2-c2cc3ccnc(N[C@@H]4CCc5cc(F)c(F)cc54)c3s2)C23CC(CN12)C3 [Compound 190, (R)-5-(4-(7-((5,6-difluoro-2,3-dihydro-1H-inden-1-yl)amino)thieno[2,3-c]pyridin-2-yl)-2-(4-fluorophenethyl)-5-oxo-8,9-dihydro-5H,7H-8,9a-methanopyrido[2,3-a]pyrrolizin-3-yl)-1,3,4-oxadiazol-2(3H)-one]
EC50 [1]: 0.00786 nM
EC50 [2]: 0.184 nM

COc1c(F)c(F)cc2c1CC[C@H]2Nc1nccc2cc(-c3c4c(nc(CCc5ccc(F)cc5)c3-c3n[nH]c(=O)o3)[C@@H]3CCCN3C4=O)sc12 [Compound 192, 5-((S)-4-(7-(((R)-5,6-difluoro-4-methoxy-2,3-dihydro-1H-inden-1-yl)amino)thieno[2,3-c]pyridin-2-yl)-2-(4-fluorophenethyl)-5-oxo-7,8,9,9a-tetrahydro-5H-pyrido[2,3-a]pyrrolizin-3-yl)-1,3,4-oxadiazol-2(3H)-one]
EC50 [1]: 0.00532 nM
EC50 [2]: 0.8 nM

COc1c(F)ccc2c1CC[C@H]2Nc1nc(C)cc2cc(-c3c4c(nc(CCc5ccc(F)cc5)c3-c3n[nH]c(=O)o3)C35CC(CN3C4=O)C5)sc12 [Compound 193, (R)-5-(4-(7-((5-fluoro-4-methoxy-2,3-dihydro-1H-inden-1-yl)amino)-5-methylthieno[2,3-c]pyridin-2-yl)-2-(4-fluorophenethyl)-5-oxo-8,9-dihydro-5H,7H-8,9a-methanopyrido[2,3-a]pyrrolizin-3-yl)-1,3,4-oxadiazol-2(3H)-one]
EC50 [1]: 0.00749 nM
EC50 [2]: 0.226 nM

COc1cccc2c1CC(F)(F)[C@H]2Nc1nccc2cc(-c3c4c(nc(CCc5ccc(F)cc5)c3-c3n[nH]c(=O)o3)[C@@H]3CCCN3C4=O)sc12 [Compound 194, 5-((S)-4-(7-(((S)-2,2-difluoro-4-methoxy-2,3-dihydro-1H-inden-1-yl)amino)thieno[2,3-c]pyridin-2-yl)-2-(4-fluorophenethyl)-5-oxo-7,8,9,9a-tetrahydro-5H-pyrido[2,3-a]pyrrolizin-3-yl)-1,3,4-oxadiazol-2(3H)-one]
EC50 [1]: 0.229 nM
EC50 [2]: 1.96 nM

COc1c(F)c(F)cc2c1CC[C@H]2Nc1nc(C)cc2cc(-c3c4c(nc(CCc5ccc(F)cc5)c3-c3n[nH]c(=O)o3)C35CC(CN3C4=O)C5)sc12 [Compound 195, (R)-5-(4-(7-((5,6-difluoro-4-methoxy-2,3-dihydro-1H-inden-1-yl)amino)-5-methylthieno[2,3-c]pyridin-2-yl)-2-(4-fluorophenethyl)-5-oxo-8,9-dihydro-5H,7H-8,9a-methanopyrido[2,3-a]pyrrolizin-3-yl)-1,3,4-oxadiazol-2(3H)-one]
EC50 [1]: 0.00616 nM
EC50 [2]: 0.0995 nM

COc1c(F)ccc2c1C[C@@H](F)[C@H]2Nc1nc(C)cc2cc(-c3c4c(nc(CCc5ccc(F)cc5)c3-c3n[nH]c(=O)o3)C35CC(CN3C4=O)C5)sc12 [Compound 196, 5-(4-(7-(((1S,2R)-2,5-difluoro-4-methoxy-2,3-dihydro-1H-inden-1-yl)amino)-5-methylthieno[2,3-c]pyridin-2-yl)-2-(4-fluorophenethyl)-5-oxo-8,9-dihydro-5H,7H-8,9a-methanopyrido[2,3-a]pyrrolizin-3-yl)-1,3,4-oxadiazol-2(3H)-one]
EC50 [1]: 0.00979 nM
EC50 [2]: 0.196 nM

O=C1c2c(nc(CCC3CCOCC3)c(-c3cc(=O)[nH]o3)c2-c2cc3ccnc(N[C@@H]4CCc5ncccc54)c3s2)[C@@H]2CCCN12 [Compound 197, 5-((S)-4-(7-(((R)-6,7-dihydro-5H-cyclopenta[b]pyridin-5-yl)amino)thieno[2,3-c]pyridin-2-yl)-5-oxo-2-(2-(tetrahydro-2H-pyran-4-yl)ethyl)-7,8,9,9a-tetrahydro-5H-pyrido[2,3-a]pyrrolizin-3-yl)isoxazol-3(2H)-one]
EC50 [1]: 58.9 nM
EC50 [2]: 1790 nM
